The subject of data set [1] is Oryza sativa. The experiment in a line: Toxicity in Oryza sativa (rice) assessed as injury at 25 g/ha pre-emergence application under paddy conditions by crop safety assay. Format: organism-based. The settings on record: in vivo, other.
Data set [2] relates to Schoenoplectiella juncoides. Briefly: Herbicidal activity against Schoenoplectiella juncoides assessed as killing at 10 g/ha pre-emergence application under paddy conditions. In kind it is functional.
The subject of data set [3] is Schoenoplectiella juncoides. The experiment in a line: Herbicidal activity against Schoenoplectiella juncoides assessed as killing at 25 g/ha pre-emergence application under paddy conditions. Format: functional.
Data set [4] relates to Pontederia vaginalis. Briefly: Herbicidal activity against Monochoria vaginalis assessed as killing at 10 g/ha pre-emergence application under paddy conditions. Format: functional.
Data set [5] in a line: Herbicidal activity against broadleaf weed assessed as killing at 10 g/ha pre-emergence application under paddy conditions. Format: functional.
In data set [6] the test system is Pontederia vaginalis. The experiment in a line: Herbicidal activity against Monochoria vaginalis assessed as killing at 25 g/ha pre-emergence application under paddy conditions. Format: functional.
A short description of data set [7]: Herbicidal activity against broadleaf weed assessed as killing at 25 g/ha pre-emergence application under paddy conditions. In kind it is functional.
For data set [8], the system named is Echinochloa oryzicola. Briefly: Herbicidal activity against Echinochloa oryzicola assessed as killing at 10 g/ha pre-emergence application under paddy conditions. In kind it is functional.
Data set [9] has as its system Echinochloa oryzicola. The experiment in a line: Herbicidal activity against Echinochloa oryzicola assessed as killing at 25 g/ha pre-emergence application under paddy conditions. Format: functional.
Data set [10] is described as follows: Octanol-water partition coefficient, log K of the compound. Format: physicochemical. The following applies: read-out: log K.
In data set [11] the test system is Echinochloa oryzicola. Briefly: Herbicidal activity against Echinochloa oryzicola assessed as killing pre-emergence application under paddy conditions. In kind it is functional.
Data set [12] relates to Oryza sativa. Briefly: Toxicity in Oryza sativa (rice) assessed as injury at 50 g/ha pre-emergence application under paddy conditions by crop safety assay. Format: organism-based. The following applies: in vivo, other.
In data set [13] the test system is Schoenoplectiella juncoides. The experiment in a line: Herbicidal activity against Schoenoplectiella juncoides assessed as killing at 50 g/ha pre-emergence application under paddy conditions. In kind it is functional.
In data set [14] the test system is Pontederia vaginalis. The experiment in a line: Herbicidal activity against Monochoria vaginalis assessed as killing at 50 g/ha pre-emergence application under paddy conditions. Format: functional.
Data set [15] in a line: Herbicidal activity against broadleaf weed assessed as killing at 50 g/ha pre-emergence application under paddy conditions. In kind it is functional.
The test system of data set [16] is Echinochloa oryzicola. Briefly: Herbicidal activity against Echinochloa oryzicola assessed as killing at 50 g/ha pre-emergence application under paddy conditions. Format: functional.
Data set [17] deals with Oryza sativa. Briefly: Toxicity in Oryza sativa (rice) assessed as injury at 10 g/ha pre-emergence application under paddy conditions by crop safety assay. Format: organism-based. The settings on record: in vivo, other.

In the case of `CCN(CC)C(=O)n1cnc(S(=O)(=O)C(CC(C)C)C(=O)OC(C)C)n1` (configuration not stated), the Activity in the data set with Oryza sativa [1] stood at 10%; in data set [2], 30%; in [3], 60%; with Pontederia vaginalis [4] it was 10%; in data set [5], 40%; with Pontederia vaginalis [6], 40%. For the same molecule, the Activity in data set [7] was 90%; in the data set with Echinochloa oryzicola [8], 40%; in the data set with Echinochloa oryzicola [9], 90%; in the data set on Oryza sativa [12] it was 10%; in [13], 100%; in the data set with Pontederia vaginalis [14], 100%. Moreover, the Activity was found to be 100% in data set [15], 100% in the data set with Echinochloa oryzicola [16] and 10% in the data set with Oryza sativa [17]. For the same molecule, the logP in data set [10] was 0.89. The “log(1/ED80)” value in the data set on Echinochloa oryzicola [11] came out at 1.41.

On to `CCN(CC)C(=O)n1cnc(S(=O)(=O)[C@H](CC(C)C)C(=O)OC(C)C)n1`, for which the Activity in the data set with Oryza sativa [1] was 10%; in [2], 10%; in data set [3], 40%; in the data set with Pontederia vaginalis [4], 10%; in data set [5] it was 40%; in the data set on Pontederia vaginalis [6], 40%. In addition, the Activity in data set [7] was 60%; in the data set with Echinochloa oryzicola [8] it was 50%; in the data set with Echinochloa oryzicola [9], 90%; in the data set on Oryza sativa [17] it was 10%.

Source of the values: ChEMBL document CHEMBL3044861, “Synthesis and Herbicidal Activity of New 2-(1-Carbamoyl-1, 2, 4-triazol-3-ylsulfonyl) alkanoates” (J Pestic Sci, 2002).
